Assay results from ChEMBL document CHEMBL5620430, “Design, synthesis and biological evaluation of indazole derivatives as selective covalent inhibitors of FGFR4 in wild-type and gatekeeper mutants” (Eur J Med Chem, 2023).
Active and inactive are the calls of the source. The calls are words filed in the database; no cut-off is given here.

Experiments:
[1] = Metabolic stability in liver microsomes (unknown origin) assessed as half life; assay type: ADME, Microsome
Huh-7 [2] = test: Induction of apoptosis in human Huh-7 cells assessed as late apoptotic cells at 1 uM measured after 48 hrs by AnnexinV-FITC/PI staining based flow cytometry (reference value: 2.55%); assay type: functional
[3] = Toxicity in NSG mouse assessed as effect on UREA level at 20 to 40 mg/kg […]; assay type: organism-based; settings: in vivo, dose 20-40 mg/kg
[4] = Toxicity in NSG mouse assessed as effect on body weight at 20 to 40 mg/kg […]; assay type: organism-based; settings: in vivo, dose 20-40 mg/kg
[5] = Toxicity in NSG mouse assessed as effect on spleen at 20 to 40 mg/kg by H and E staining based analysis; assay type: organism-based; settings: in vivo, dose 20-40 mg/kg
[6] = Toxicity in NSG mouse assessed as effect on lung at 20 to 40 mg/kg by H and E staining based analysis; assay type: organism-based; settings: in vivo, dose 20-40 mg/kg
[7] = molecular target: T1, Fibroblast growth factor receptor 4 (Homo sapiens, UniProt P22455); test: Inhibition of FGFR4 in human Huh-7 cells assessed as inhibition of MEK phosphorylation incubated for 2 hrs followed by compound washout and measured upto 8 hrs by Western blot analysis; assay type: cell-based
Target sequence in this assay (P22455 22-802 limits assumed): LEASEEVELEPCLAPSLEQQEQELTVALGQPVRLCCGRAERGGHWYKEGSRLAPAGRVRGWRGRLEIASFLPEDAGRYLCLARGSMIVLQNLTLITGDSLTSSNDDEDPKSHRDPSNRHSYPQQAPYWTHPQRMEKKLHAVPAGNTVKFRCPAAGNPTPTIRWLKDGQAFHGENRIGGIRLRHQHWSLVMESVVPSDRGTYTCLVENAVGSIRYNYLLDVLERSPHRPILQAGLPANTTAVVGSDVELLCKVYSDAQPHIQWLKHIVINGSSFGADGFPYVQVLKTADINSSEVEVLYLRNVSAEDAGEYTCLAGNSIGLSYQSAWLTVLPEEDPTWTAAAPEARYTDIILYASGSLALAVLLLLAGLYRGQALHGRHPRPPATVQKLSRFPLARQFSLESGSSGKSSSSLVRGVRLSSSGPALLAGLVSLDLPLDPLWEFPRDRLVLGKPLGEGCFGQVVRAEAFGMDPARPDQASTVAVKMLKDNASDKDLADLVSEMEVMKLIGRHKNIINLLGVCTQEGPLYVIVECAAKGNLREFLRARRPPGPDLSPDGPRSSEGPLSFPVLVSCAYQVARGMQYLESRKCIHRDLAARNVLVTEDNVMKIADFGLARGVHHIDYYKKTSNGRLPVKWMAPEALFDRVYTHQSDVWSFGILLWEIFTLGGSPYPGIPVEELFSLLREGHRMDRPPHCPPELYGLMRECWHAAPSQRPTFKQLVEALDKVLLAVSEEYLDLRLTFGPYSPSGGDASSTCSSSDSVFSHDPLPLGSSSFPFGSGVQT

[8] = AUC (0 to t) in Sprague-Dawley rat at 2 mg/kg, iv by LC-MS/MS analysis; assay type: ADME, organism-based; settings: in vivo
[9] = molecular target: Fibroblast growth factor receptor 1 (Homo sapiens, UniProt P11362)
Fibroblast growth factor receptor 1, sequence (P11362 whole entry): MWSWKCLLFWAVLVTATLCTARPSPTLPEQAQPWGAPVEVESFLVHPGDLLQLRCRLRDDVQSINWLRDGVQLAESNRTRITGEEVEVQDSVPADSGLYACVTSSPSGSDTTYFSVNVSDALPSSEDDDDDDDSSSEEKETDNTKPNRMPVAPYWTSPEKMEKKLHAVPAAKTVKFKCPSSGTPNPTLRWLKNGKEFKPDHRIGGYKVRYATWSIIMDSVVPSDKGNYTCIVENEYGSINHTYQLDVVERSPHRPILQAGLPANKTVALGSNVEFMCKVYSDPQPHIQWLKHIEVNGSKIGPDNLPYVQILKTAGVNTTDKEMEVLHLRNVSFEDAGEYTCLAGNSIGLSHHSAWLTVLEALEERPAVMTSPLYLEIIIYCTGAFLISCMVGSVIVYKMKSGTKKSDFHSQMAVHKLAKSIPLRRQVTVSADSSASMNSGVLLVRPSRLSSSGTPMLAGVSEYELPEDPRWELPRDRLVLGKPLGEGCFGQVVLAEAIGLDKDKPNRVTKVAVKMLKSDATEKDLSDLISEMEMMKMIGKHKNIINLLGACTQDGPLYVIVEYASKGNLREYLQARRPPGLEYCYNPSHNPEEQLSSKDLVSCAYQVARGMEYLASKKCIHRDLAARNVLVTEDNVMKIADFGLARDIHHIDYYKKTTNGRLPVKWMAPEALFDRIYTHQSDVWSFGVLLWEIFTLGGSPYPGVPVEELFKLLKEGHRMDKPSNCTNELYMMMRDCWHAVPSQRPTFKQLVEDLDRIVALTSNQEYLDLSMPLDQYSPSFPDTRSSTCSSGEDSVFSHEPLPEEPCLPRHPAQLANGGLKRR
Description: Inhibition of FGFR1 (unknown origin)

HepG2 = test: Antiproliferative activity against human HepG2 cells measured after 24 to 48 hrs by MTT assay; assay type: functional, cell-based
[10] = Toxicity in NSG mouse assessed as effect on kidney at 20 to 40 mg/kg by H and E staining based analysis; assay type: organism-based; settings: in vivo, dose 20-40 mg/kg
[11] = Toxicity in NSG mouse assessed as effect on liver at 20 to 40 mg/kg by H and E staining based analysis; assay type: organism-based; settings: in vivo, dose 20-40 mg/kg
Huh-7 [12] = test: Antitumor activity against human Huh-7 cells xenografted in ip dosed NSG mouse assessed as decrease in tumor weight administered twice per day for 2 weeks; assay type: functional, organism-based; settings: dose 20-40 mg/kg
[13] = Toxicity in NSG mouse assessed as effect on CHO level at 20 to 40 mg/kg […]; assay type: organism-based; settings: in vivo, dose 20-40 mg/kg
[14] = Antiproliferative activity against human L02 cells measured after 24 to 48 hrs by MTT assay; assay type: toxicity, cell-based
[15] = Toxicity in NSG mouse assessed as effect on ALB level at 20 to 40 mg/kg […]; assay type: organism-based; settings: in vivo, dose 20-40 mg/kg
[16] = molecular target: T1, Fibroblast growth factor receptor 4; test: Inhibition of FGFR4 in human Huh-7 cells assessed as inhibition of MEK phosphorylation at 0.5 uM by Western blot analysis; assay type: cell-based; settings: time <= 24.0 hrs, TDE = time-dependent effect
Target sequence in this assay (P22455 22-802 limits assumed): as the sequence (P22455 22-802 limits assumed) above

[17] = molecular target: T1, Fibroblast growth factor receptor 4; test: Inhibition of FGFR4 in human Huh-7 cells assessed as inhibition of ERK1/2 phosphorylation at 0.5 uM by Western blot analysis; assay type: cell-based; settings: time <= 24.0 hrs, TDE = time-dependent effect
Target sequence in this assay (P22455 22-802 limits assumed): as above

[18] = Half life in Sprague-Dawley rat at 2 mg/kg, iv by LC-MS/MS analysis; assay type: ADME, organism-based; settings: in vivo
[19] = Oral bioavailability in Sprague-Dawley rat at 10 mg/kg by LC-MS/MS analysis; assay type: ADME, organism-based; settings: in vivo
[20] = molecular target: T1, Fibroblast growth factor receptor 4
Target sequence in this assay (P22455 whole entry): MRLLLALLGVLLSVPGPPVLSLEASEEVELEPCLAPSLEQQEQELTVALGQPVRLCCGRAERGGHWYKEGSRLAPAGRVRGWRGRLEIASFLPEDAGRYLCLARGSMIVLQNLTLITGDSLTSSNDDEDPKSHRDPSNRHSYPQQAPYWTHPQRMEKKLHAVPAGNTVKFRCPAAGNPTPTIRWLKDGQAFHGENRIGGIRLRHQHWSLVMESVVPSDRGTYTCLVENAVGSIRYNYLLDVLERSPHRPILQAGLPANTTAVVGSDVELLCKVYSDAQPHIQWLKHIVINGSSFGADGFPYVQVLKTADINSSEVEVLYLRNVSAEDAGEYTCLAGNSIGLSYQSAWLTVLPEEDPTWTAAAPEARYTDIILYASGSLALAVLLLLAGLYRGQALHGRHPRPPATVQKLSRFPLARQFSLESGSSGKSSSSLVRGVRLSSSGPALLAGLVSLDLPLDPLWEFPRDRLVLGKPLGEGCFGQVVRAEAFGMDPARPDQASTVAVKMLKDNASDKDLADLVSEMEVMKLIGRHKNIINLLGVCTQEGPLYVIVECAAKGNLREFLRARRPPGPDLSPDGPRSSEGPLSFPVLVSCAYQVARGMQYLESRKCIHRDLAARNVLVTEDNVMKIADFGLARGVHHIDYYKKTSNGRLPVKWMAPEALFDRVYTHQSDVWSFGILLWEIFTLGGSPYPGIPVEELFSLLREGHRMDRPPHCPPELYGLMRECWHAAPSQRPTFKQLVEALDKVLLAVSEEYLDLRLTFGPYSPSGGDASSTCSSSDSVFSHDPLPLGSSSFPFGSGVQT
Description: Inhibition of FGFR4 (445 to 753 residues) (unknown origin) expressed in Escherichia coli

Huh-7 [21] = test: Antitumor activity against human Huh-7 cells xenografted in NSG mouse assessed as suppression of tumor growth at 40 mg/kg, ip administered twice per day for 2 weeks relative to control; assay type: functional
Huh-7 [22] = test: Inhibition of colony formation in human Huh-7 cells assessed as reduction in number of colonies at 10 to 270 nM measured for 12 days; assay type: functional, cell-based; settings: dose 10-270 nM, time 12.0 day
[23] = Toxicity in NSG mouse assessed as effect on AST level at 20 to 40 mg/kg […]; assay type: organism-based; settings: in vivo, dose 20-40 mg/kg
[24] = Toxicity in NSG mouse assessed as effect on ALT level at 20 to 40 mg/kg […]; assay type: organism-based; settings: in vivo, dose 20-40 mg/kg
[25] = Toxicity in NSG mouse assessed as effect on UA level at 20 to 40 mg/kg […]; assay type: organism-based; settings: in vivo, dose 20-40 mg/kg
[26] = Tmax in Sprague-Dawley rat at 10 mg/kg, po by LC-MS/MS analysis; assay type: ADME, organism-based; settings: in vivo
[27] = MRT (0 to t) in Sprague-Dawley rat at 2 mg/kg, iv by LC-MS/MS analysis; assay type: ADME, organism-based; settings: in vivo
[28] = molecular target: T1, Fibroblast growth factor receptor 4; test: Inhibition of FGFR4 phosphorylation in human Huh-7 cells at 120 nM by Western blot analysis; assay type: cell-based
Target sequence in this assay (P22455 22-802 limits assumed): as the sequence (P22455 22-802 limits assumed) above

Huh-7 [29] = test: Antitumor activity against human Huh-7 cells xenografted in ip dosed NSG mouse assessed as suppression of tumor growth administered twice per day for 2 weeks; assay type: functional, organism-based; settings: dose 20-40 mg/kg
[30] = Cmax in Sprague-Dawley rat at 2 mg/kg, iv by LC-MS/MS analysis; assay type: ADME, organism-based; settings: in vivo
[31] = molecular target: T1, Fibroblast growth factor receptor 4; test: Inhibition of FGFR4 in human Huh-7 cells assessed as inhibition of ERK1/2 phosphorylation incubated for 2 hrs followed by compound washout and measured upto 8 hrs by Western blot analysis; assay type: cell-based
Target sequence in this assay (P22455 22-802 limits assumed): as above

[32] = Toxicity in NSG mouse assessed as effect on CK level at 20 to 40 mg/kg […]; assay type: organism-based; settings: in vivo, dose 20-40 mg/kg
Hep 3B2 = test: Antiproliferative activity against human Hep3B cells measured after 24 to 48 hrs by MTT assay; assay type: functional, cell-based
Huh-7 [33] = test: cells; settings: Homo sapiens
Description: Antiproliferative activity against human Huh-7 cells measured after 24 to 48 hrs by MTT assay

[34] = Half life in Sprague-Dawley rat at 10 mg/kg, po by LC-MS/MS analysis; assay type: ADME, organism-based; settings: in vivo
[35] = Toxicity in NSG mouse assessed as effect on LDH level at 20 to 40 mg/kg […]; assay type: organism-based; settings: in vivo, dose 20-40 mg/kg
[36] = molecular target: Fibroblast growth factor receptor 2 (Homo sapiens, UniProt P21802)
Fibroblast growth factor receptor 2, sequence (P21802 whole entry): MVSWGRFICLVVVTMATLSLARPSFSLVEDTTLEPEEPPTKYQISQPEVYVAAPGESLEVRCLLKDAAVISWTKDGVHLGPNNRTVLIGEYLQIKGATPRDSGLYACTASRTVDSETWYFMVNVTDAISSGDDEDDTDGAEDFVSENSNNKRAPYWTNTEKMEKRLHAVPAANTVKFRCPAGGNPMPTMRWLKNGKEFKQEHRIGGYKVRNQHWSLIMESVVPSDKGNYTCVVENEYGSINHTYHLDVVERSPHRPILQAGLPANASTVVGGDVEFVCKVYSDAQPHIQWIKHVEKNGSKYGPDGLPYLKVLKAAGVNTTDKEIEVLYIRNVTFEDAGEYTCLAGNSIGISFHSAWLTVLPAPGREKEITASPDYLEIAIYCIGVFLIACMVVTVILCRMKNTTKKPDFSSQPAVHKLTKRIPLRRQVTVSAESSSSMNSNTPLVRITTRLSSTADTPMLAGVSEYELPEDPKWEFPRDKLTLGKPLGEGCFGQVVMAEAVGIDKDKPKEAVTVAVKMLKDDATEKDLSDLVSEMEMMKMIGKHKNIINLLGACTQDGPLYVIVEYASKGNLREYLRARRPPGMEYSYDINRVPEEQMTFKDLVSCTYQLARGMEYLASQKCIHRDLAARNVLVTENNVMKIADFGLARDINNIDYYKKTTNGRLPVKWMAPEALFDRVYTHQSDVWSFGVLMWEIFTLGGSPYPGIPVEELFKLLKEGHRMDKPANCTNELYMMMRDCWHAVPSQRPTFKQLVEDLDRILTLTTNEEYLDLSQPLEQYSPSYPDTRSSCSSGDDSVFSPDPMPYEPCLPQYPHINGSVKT
Description: Inhibition of FGFR2 (unknown origin)

[37] = AUC (0 to t) in Sprague-Dawley rat at 10 mg/kg, po by LC-MS/MS analysis; assay type: ADME, organism-based; settings: in vivo
[38] = molecular target: T1, Fibroblast growth factor receptor 4; test: Inhibition of FGFR4 in human Huh-7 cells assessed as inhibition of ERK1/2 phosphorylation measured after 2 hrs by Western blot analysis; assay type: cell-based
Target sequence in this assay (P22455 22-802 limits assumed): as the sequence (P22455 22-802 limits assumed) above

[39] = Tmax in Sprague-Dawley rat at 2 mg/kg, iv by LC-MS/MS analysis; assay type: ADME, organism-based; settings: in vivo
Huh-7 [40] = test: Antitumor activity against human Huh-7 cells xenografted in NSG mouse assessed as suppression of tumor growth at 20 mg/kg, ip administered twice per day for 2 weeks relative to control; assay type: functional
[41] = Toxicity in NSG mouse assessed as effect on TP level at 20 to 40 mg/kg […]; assay type: organism-based; settings: in vivo, dose 20-40 mg/kg
[42] = molecular target: Fibroblast growth factor receptor 3 (Homo sapiens, UniProt P22607)
Fibroblast growth factor receptor 3, sequence (P22607 whole entry): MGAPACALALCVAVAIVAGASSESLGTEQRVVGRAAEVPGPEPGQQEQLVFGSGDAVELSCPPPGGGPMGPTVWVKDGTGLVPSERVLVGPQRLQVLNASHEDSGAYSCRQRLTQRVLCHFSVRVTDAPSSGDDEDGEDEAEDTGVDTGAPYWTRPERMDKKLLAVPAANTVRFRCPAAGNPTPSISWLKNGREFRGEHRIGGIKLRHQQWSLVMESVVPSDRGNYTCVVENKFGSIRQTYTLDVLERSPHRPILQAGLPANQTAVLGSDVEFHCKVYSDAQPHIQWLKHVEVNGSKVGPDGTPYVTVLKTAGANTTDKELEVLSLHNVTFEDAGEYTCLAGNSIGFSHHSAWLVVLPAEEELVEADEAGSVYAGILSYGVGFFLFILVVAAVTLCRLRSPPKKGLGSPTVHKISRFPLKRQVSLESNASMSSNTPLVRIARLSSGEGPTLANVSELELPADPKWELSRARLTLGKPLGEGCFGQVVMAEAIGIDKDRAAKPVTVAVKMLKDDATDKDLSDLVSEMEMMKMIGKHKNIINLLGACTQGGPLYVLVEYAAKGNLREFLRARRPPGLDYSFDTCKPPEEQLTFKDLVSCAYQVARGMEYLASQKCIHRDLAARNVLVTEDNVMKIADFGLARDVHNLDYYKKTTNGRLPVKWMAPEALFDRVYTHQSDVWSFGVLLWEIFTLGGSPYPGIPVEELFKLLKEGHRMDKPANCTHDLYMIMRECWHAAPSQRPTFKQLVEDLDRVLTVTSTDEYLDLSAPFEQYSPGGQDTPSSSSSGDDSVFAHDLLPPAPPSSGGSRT
Description: Inhibition of FGFR3 (unknown origin)

Huh-7 [43] = test: Induction of cell cycle arrest in human Huh-7 cells assessed as accumulation of cells at G0/G1 phase at 1 to 2 uM measured after 48 hrs by propidium iodide staining based flow cytometry analysis; assay type: functional; settings: dose 1-2 µM

Question: What does the source list for `C=CC(=O)Nc1cc2c(cc1-c1n[nH]c3ccc(O[C@H](C)c4c(Cl)cncc4Cl)cc13)CCN(C)C2`?
Answer: half-life [1]: 8.99 min; Activity (Huh-7 [2]): 7.46%; Activity [3]: Non-Toxic; Activity [4]: Non-Toxic; Activity [5]: Non-Toxic; Activity [6]: Non-Toxic; inhibition [7]: Active; AUC(0-t) [8]: 192 ng·h/mL; IC50 [9]: > 3 µM; IC50 (HepG2): > 5 µM; Activity [10]: Non-Toxic; Activity [11]: Non-Toxic; Activity (Huh-7 [12]): Dose-Dependent Effect; Activity [13]: Non-Toxic; IC50 [14]: > 10 µM; Activity [15]: Non-Toxic; inhibition [16]: Tde; inhibition [17]: Tde; half-life [18]: 7 h; bioavailability [19]: 1.36%; IC50 [20]: 0.0024 µM; Activity (Huh-7 [21]): 83%; inhibition (Huh-7 [22]): Active; Activity [23]: Non-Toxic; Activity [24]: Non-Toxic; Activity [25]: Non-Toxic; Tmax [26]: 1.67 h; MRT last [27]: 1.55 h; inhibition [28]: Active; Activity (Huh-7 [29]): Dose-Dependent Effect; Cmax [30]: 214 ng/mL; inhibition [31]: Active; Activity [32]: Non-Toxic; IC50 (Hep 3B2): 0.038 µM; IC50 (Huh-7 [33]): 0.021 µM; half-life [34]: 2.59 h; Activity [35]: Non-Toxic; IC50 [36]: > 3000 µM; AUC(0-t) [37]: 13 ng·h/mL; inhibition [38]: Dose-Dependent Effect; Tmax [39]: 4.8 min; Activity (Huh-7 [40]): 60.2%; Activity [41]: Non-Toxic; IC50 [42]: > 3000 µM; Activity (Huh-7 [43]): Active
